From ChEMBL document CHEMBL1127528, “Synthesis and carbonic anhydrase inhibitory activity of 4-substituted 2-thiophenesulfonamides” (J Med Chem, 1994) come the findings set out here.

Bounds are passed on as bounds.

The nature of assay [1]: Ocular sensitization assay as susceptibility to nucleophilic attack by cysteine. The class given is functional.
For the next assay, the target named is Carbonic anhydrase 2 (Homo sapiens, UniProt P00918).

Description for Carbonic anhydrase 2: Activity against human carbonic anhydrase II

Usually IC50 stands for the midpoint of a concentration-inhibition curve. Low readings indicate inhibition by little substance, high ones a need for much substance. In the case of `CCCCCC/C(=N\O)c1csc(S(N)(=O)=O)c1`, in assay [1], the Cysteine reaction stood at 5e-05 min⁻¹. At Carbonic anhydrase 2, the concentration for half-maximal inhibition (IC50) came to 5.8 nM. Take `CCCCNC(C)c1csc(S(N)(=O)=O)c1` (stereo unspecified): inhibition at Carbonic anhydrase 2 was half-maximal at 590 nM (IC50).

`CC(=O)c1csc(S(N)(=O)=O)c1`: at Carbonic anhydrase 2, 16 nM corresponded to half-maximal inhibition (IC50). As for `CCCCCC/C(=N\N)c1csc(S(N)(=O)=O)c1`, the Cysteine reaction in assay [1] was 5e-05 min⁻¹. In addition, the IC50 against Carbonic anhydrase 2 stood at 2 nM.

On to `CCCCCCC(N)c1csc(S(N)(=O)=O)c1` (stereo unspecified), for which 160 nM corresponded to half-maximal inhibition against Carbonic anhydrase 2 (IC50). As for `CCCCC(O[Si](C)(C)C(C)(C)C)c1csc(S(N)(=O)=O)c1` (stereo unspecified), the IC50 on Carbonic anhydrase 2 was determined as 200 nM.

For `NS(=O)(=O)c1cc(C(=O)c2ccccc2)cs1`, the Cysteine reaction in assay [1] came to 5e-05 min⁻¹. The compound further showed an IC50 at Carbonic anhydrase 2 of 6.8 nM.

On to `CCCCCCC(=O)c1csc(S(N)(=O)=O)c1`, for which, in assay [1], the Cysteine reaction was 5e-05 min⁻¹. Besides, at Carbonic anhydrase 2, half-maximal inhibition (IC50) was put at 5 nM. At Carbonic anhydrase 2, `CCCC/C(=N\O)c1csc(S(N)(=O)=O)c1` registered an IC50 of 15 nM. In turn, `CCCCC(=O)c1csc(S(N)(=O)=O)c1` came in with an IC50 at Carbonic anhydrase 2 of 6.3 nM. For the compound `CCCCCC/C(=N\OC)c1csc(S(N)(=O)=O)c1`, the Cysteine reaction in assay [1] came out at 5e-05 min⁻¹. Moreover, half-maximal inhibition against Carbonic anhydrase 2 (IC50) was put at 4.7 nM.

As for `CCCCCCC(O)c1csc(S(N)(=O)=O)c1` (stereo unspecified), in assay [1], the Cysteine reaction was under 5e-05 min⁻¹. At Carbonic anhydrase 2, this compound showed an IC50 of 13 nM. `CC(=O)Nc1nnc(S(N)(=O)=O)s1`: the Cysteine reaction in assay [1] stood at 3.5e-05 min⁻¹. On the same count and under the same terms, the result for `CC(C)CN[C@H]1CCS(=O)(=O)c2sc(S(N)(=O)=O)cc21` reads under 5e-05 min⁻¹. Regarding `CCCCC(N)c1csc(S(N)(=O)=O)c1` (stereo unspecified), the half-maximal inhibitory concentration (IC50) on Carbonic anhydrase 2 worked out at 626 nM.
